# According to patent US20230017045A1, “PYRIDINE AND PYRIMIDINE CARBOXYLATE HERBICIDES AND METHODS OF USE THEREOF” (Dow AgroSciences LLC, priority 2017, published 2023):
# Like-named read-outs stand apart in the source and are kept apart here.
# Test system: test plant species
# Test: Post-emergent herbicidal activity test (greenhouse, foliar spray, visual growth reduction)
# Type: in vivo
# Details: post-emergence, 336 h, 140 g ai/ha
# Procedure, shortened: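 Scoring used a 0 to 100 percent visual scale of growth reduction against solvent-treated controls, read 14 d after spraying. Applications went onto plants at first or second true leaf stage, 187 L/ha, with crop oil concentrate and X-77 surfactant in the carrier. Post-treatment watering was by subirrigation to avoid wash-off.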
# [1] = ALOMY: blackgrass (Alopecurus myosuroides), 14 days after application, read-out: Visual Growth Reduction (%) 14 Days After Application, ALOMY
# [2] = AMARE: redroot pigweed (Amaranthus retroflexus), 14 days after application, read-out: Visual Growth Reduction (%) 14 Days After Application, AMARE
# [3] = AVEFA: wild oat (Avena fatua), 14 days after application, read-out: Visual Growth Reduction (%) 14 Days After Application, AVEFA
# [4] = CHEAL: lambsquarters (Chenopodium album), 14 days after application, read-out: Visual Growth Reduction (%) 14 Days After Application, CHEAL
# [5] = CIRAR: canada thistle (Cirsium arvense), 14 days after application, read-out: Visual Growth Reduction (%) 14 Days After Application, CIRAR
# [6] = CYPES: yellow nutsedge (Cyperus esculentus), 14 days after application, read-out: Visual Growth Reduction (%) 14 Days After Application, CYPES
# [7] = DIGSA: crabgrass (Digitaria sanguinalis), 14 days after application, read-out: Visual Growth Reduction (%) 14 Days After Application, DIGSA
# [8] = ECHCG: barnyardgrass (Echinochloa crus-galli), 14 days after application, read-out: Visual Growth Reduction (%) 14 Days After Application, ECHCG
# [9] = IPOHE: ivy-leaf morning glory (Ipomoea hederacea), 14 days after application, read-out: Visual Growth Reduction (%) 14 Days After Application, IPOHE
# [10] = KCHSC: kochia (Bassia scoparia), 14 days after application, read-out: Visual Growth Reduction (%) 14 Days After Application, KCHSC
# [11] = ORYSA: rice (Oryza sativa), 14 days after application, read-out: Visual Growth Reduction (%) 14 Days After Application, ORYSA
# [12] = SETFA: giant foxtail (Setaria faberi), 14 days after application, read-out: Visual Growth Reduction (%) 14 Days After Application, SETFA
# [13] = SORVU: grain sorghum (Sorghum vulgare), 14 days after application, read-out: Visual Growth Reduction (%) 14 Days After Application, SORVU
# [14] = STEME: common chickweed (Stellaria media), 14 days after application, read-out: Visual Growth Reduction (%) 14 Days After Application, STEME
# [15] = TRZAS: wheat, spring (Triticum aestivum), 14 days after application, read-out: Visual Growth Reduction (%) 14 Days After Application, TRZAS
# [16] = blackgrass (Alopecurus myosuroides), 14 Days After Application, read-out: Visual Growth Reduction (%) ALOMY
# [17] = canada thistle (Cirsium arvense), 14 Days After Application, read-out: Visual Growth Reduction (%) CIRAR
# [18] = crabgrass (Digitaria sanguinalis), 14 Days After Application, read-out: Visual Growth Reduction (%) DIGSA
# [19] = lambsquarters (Chenopodium album), 14 Days After Application, read-out: Visual Growth Reduction (%) CHEAL
# [20] = redroot pigweed (Amaranthus retroflexus), 14 Days After Application, read-out: Visual Growth Reduction (%) AMARE
# [21] = wild oat (Avena fatua), 14 Days After Application, read-out: Visual Growth Reduction (%) AVEFA
# [22] = yellow nutsedge (Cyperus esculentus), 14 Days After Application, read-out: Visual Growth Reduction (%) CYPES
SMILES,pest or weed control at 140 g/ha [1],pest or weed control at 140 g/ha [2],pest or weed control at 140 g/ha [3],pest or weed control at 140 g/ha [4],pest or weed control at 140 g/ha [5],pest or weed control at 140 g/ha [6],pest or weed control at 140 g/ha [7],pest or weed control at 140 g/ha [8],pest or weed control at 140 g/ha [9],pest or weed control at 140 g/ha [10],pest or weed control at 140 g/ha [11],pest or weed control at 140 g/ha [12],pest or weed control at 140 g/ha [13],pest or weed control at 140 g/ha [14],pest or weed control at 140 g/ha [15],pest or weed control at 140 g/ha [16],pest or weed control at 140 g/ha [17],pest or weed control at 140 g/ha [18],pest or weed control at 140 g/ha [19],pest or weed control at 140 g/ha [20],further results
CCN(CC)c1c(Cl)ccc(-c2ccc(Cl)c(C(=O)OC)n2)c1F [F171],0 to 29%,0 to 29%,0 to 29%,60 to 74%,0 to 29%,0 to 29%,0 to 29%,0 to 29%,0 to 29%,30 to 44%,0 to 29%,0 to 29%,0 to 29%,0 to 29%,0 to 29%,–,–,–,–,–,–
"COC(=O)c1nc(-c2ccc(C(F)(F)F)cc2F)c(Cl)cc1Cl [F102, Methyl 3,5-dichloro-6-(2-fluoro-4-(trifluoromethyl)phenyl)picolinate]",0 to 29%,45 to 59%,0 to 29%,60 to 74%,0 to 29%,0 to 29%,0 to 29%,0 to 29%,60 to 74%,0 to 29%,0 to 29%,0 to 29%,60 to 74%,0 to 29%,0 to 29%,–,–,–,–,–,–
"COC(=O)c1nc(-c2c(Cl)cc(C(F)(F)F)cc2S(C)(=O)=O)ccc1Cl [F138, methyl 3-chloro-6-(2-chloro-6-(methylsulfonyl)-4-(trifluoromethyl)phenyl)picolinate]",0 to 29%,85 to 94%,0 to 29%,60 to 74%,60 to 74%,0 to 29%,0 to 29%,0 to 29%,75 to 84%,60 to 74%,0 to 29%,0 to 29%,0 to 29%,0 to 29%,0 to 29%,–,–,–,–,–,–
"COC(=O)c1nc(-c2ccc(OC)nc2)ccc1Cl [F269, Methyl 5-chloro-6′-methoxy-[2,3′-bipyridine]-6-carboxylate]",–,–,–,–,–,–,–,0 to 29%,0 to 29%,30 to 44%,0 to 29%,0 to 29%,0 to 29%,0 to 29%,0 to 29%,0 to 29%,30 to 44%,0 to 29%,0 to 29%,0 to 29%,pest or weed control at 140 g/ha [21]: 0 to 29%; pest or weed control at 140 g/ha [22]: 0 to 29%
"COC(=O)c1nc(-c2c(Cl)cccc2OC)c(F)cc1Cl [F301, Methyl 3-chloro-6-(2-chloro-6-methoxyphenyl)-5-fluoropicolinate]",–,–,–,–,–,–,–,0 to 29%,0 to 29%,0 to 29%,0 to 29%,0 to 29%,0 to 29%,0 to 29%,0 to 29%,0 to 29%,0 to 29%,0 to 29%,0 to 29%,0 to 29%,pest or weed control at 140 g/ha [21]: 0 to 29%; pest or weed control at 140 g/ha [22]: 0 to 29%
